The subject of test [1] is complement system. Particulars: in words; literature; cited from earlier work.
For test [2] the following is noted: in words; literature; cited from earlier work.
Test [3] concerns shunt pathway activated by cobra venom factor. The test is described as follows: Test, Code 036 (C-Shunt inhibitor). The following applies: higher well number indicates higher activity. Format: cell-based, human. From the text:
(§1) An active inhibitor protects C2 from C1 and C4; (ii) Test, Code 035 (C3-C9 inhibitor)--This test determines the ability of the late components of human complement (C3-C9) to lyse EAC 142 in the presence of appropriate dilutions of the test compound. An active inhibitor protects EAC 142 from lysis by human C3-C9; (iii) Test, Code 036 (C-Shunt inhibitor)--In this test human erythrocytes rendered fragile are lysed in autologous serum via the shunt pathway activated by cobra venom factor in the presence of appropriate dilutions of the test compound. Inhibition of the shunt pathway results in failure of lysis; (iv) Forssman Vasculitis Test--Here, the well known complement dependent lesion, Forssman vasculitis, is produced in guinea pigs by intradermal injection of rabbit anti-Forssman antiserum. The lesion is measured in terms of diameter, edema and hemorrhage and the extent to which a combined index of these is inhibited by prior intraperitoneal injection of the test compound at 200 mg/kg is then reported, unless otherwise stated; (v) Forssman Shock Test--Lethan shock is produced in guinea pigs by an i.v. injection of anti-Forssman antiserum and the harmonic mean death time of treated guinea pigs is compared with that of simultaneous controls; (vi) Complement Level Reduction Test--In this test, the above dosed guinea pigs, or others, are bled for serum and the complement level is determined in undiluted serum by the capillary tube method of U.S. Pat. No. 3,876,376 and compared to undosed control guinea pigs; and (vii) Cap 50 Test--Here, appropriate amounts of the test compound are added to a pool of guinea pig serum in vitro, after which the undiluted serum capillary tube assay referred to above is run. The concentration of compound inhibiting 50% is reported.
(§2) *Code designation for tests employed as referred herein.
(§3) **Activity in wells a serial dilution assay. Higher well number indicates
(§4) higher activity. The serial dilutions are twofold.

The subject of test [4] is late components of human complement (C3-C9). The test is described as follows: Test, Code 035 (C3-C9 inhibitor). Particulars: higher well number indicates higher activity. The format is cell-based.
From the text: as §1, §2, §3, §4

Test [5] concerns whole complement. Briefly: In vivo activity, complement level reduction in serum of dosed guinea pigs (capillary tube assay). On the set-up: species or system guinea pig.
The target of test [6] is T1, activated human C1 (Homo sapiens, UniProt P09871).
T1 construct: test of C2 destruction in presence of C4
T1 sequence (P09871 16-688): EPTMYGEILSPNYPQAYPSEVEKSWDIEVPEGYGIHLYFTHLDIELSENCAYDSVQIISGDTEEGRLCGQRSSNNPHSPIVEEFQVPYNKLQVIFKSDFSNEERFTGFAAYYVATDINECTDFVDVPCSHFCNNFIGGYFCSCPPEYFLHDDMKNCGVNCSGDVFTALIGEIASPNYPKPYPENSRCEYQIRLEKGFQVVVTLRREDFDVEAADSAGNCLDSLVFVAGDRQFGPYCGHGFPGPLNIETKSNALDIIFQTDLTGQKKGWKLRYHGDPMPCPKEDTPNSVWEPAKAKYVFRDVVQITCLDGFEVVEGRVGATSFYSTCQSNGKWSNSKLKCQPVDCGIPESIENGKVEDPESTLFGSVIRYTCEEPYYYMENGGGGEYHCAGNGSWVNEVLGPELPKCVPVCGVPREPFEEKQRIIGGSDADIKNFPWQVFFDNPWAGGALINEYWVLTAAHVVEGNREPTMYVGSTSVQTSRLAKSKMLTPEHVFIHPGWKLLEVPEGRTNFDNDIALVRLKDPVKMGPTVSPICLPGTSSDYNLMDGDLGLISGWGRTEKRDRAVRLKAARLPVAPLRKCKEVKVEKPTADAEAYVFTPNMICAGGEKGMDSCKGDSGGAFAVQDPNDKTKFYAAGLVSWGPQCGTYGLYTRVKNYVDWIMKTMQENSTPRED
T1 sequence (P00736 18-705 partner): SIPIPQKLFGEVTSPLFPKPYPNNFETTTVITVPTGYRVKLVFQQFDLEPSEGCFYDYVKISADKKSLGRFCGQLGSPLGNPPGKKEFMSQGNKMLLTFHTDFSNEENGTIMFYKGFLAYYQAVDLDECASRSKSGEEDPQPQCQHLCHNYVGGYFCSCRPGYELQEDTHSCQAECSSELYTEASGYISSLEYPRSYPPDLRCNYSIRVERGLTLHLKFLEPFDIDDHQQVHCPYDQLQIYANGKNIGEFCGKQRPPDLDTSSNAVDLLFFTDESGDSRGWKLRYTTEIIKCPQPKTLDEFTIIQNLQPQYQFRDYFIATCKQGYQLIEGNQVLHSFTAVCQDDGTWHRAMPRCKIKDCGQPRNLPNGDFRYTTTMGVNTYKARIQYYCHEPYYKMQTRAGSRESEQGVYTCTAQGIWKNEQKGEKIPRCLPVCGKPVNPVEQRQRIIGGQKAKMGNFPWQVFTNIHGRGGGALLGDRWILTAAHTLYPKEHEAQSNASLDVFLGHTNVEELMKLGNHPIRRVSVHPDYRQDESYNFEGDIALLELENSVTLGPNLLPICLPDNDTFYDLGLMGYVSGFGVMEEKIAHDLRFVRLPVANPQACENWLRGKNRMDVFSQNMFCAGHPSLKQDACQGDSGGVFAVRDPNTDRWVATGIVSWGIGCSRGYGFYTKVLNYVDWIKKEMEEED
T1 sequence (P02745 23-245 partner): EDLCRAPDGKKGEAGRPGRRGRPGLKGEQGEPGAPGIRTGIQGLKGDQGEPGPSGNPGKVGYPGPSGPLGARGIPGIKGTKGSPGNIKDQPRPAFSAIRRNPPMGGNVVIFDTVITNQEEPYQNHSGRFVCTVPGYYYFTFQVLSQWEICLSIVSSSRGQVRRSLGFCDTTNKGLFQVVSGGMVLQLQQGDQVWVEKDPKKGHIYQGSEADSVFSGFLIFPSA
T1 sequence (P02746 28-253 partner): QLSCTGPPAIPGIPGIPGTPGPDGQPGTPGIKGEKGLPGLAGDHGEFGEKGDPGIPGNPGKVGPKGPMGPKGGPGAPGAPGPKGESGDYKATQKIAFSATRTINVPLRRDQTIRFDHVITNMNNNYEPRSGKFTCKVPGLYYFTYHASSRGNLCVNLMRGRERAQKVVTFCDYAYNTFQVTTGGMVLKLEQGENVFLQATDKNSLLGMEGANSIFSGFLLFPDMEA
T1 sequence (P02747 29-245 partner): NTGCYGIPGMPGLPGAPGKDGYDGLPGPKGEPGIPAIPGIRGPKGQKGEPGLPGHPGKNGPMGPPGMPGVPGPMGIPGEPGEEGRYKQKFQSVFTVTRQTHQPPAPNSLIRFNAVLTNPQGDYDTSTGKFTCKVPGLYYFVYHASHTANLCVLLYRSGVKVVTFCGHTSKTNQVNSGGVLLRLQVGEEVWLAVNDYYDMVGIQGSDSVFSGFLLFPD
Briefly: Test, Code 026 (C1 inhibitor). Format: biochemical. Particulars: higher well number indicates higher activity.
From the text: as §1, §2, §3, §4

Test [7] concerns total hemolytic complement activity. The following applies: human serum, in vitro; in words; cited from earlier work.
Test [8] shares this test system. Particulars: human serum; in words; cited from earlier work.
Setting [9] is: Table II (intermediates), twofold serial dilution.
Where [10] appears, read: Table II, intraperitoneal, time 30 min.
The mark [11] stands for this setting: Table II, intraperitoneal, time 60 min.
The mark [12] stands for this setting: Table II, intraperitoneal, time 120 min.
Setting [13] is: Table II, intravenous, time 2 min.
The mark [14] stands for this setting: Table II, intravenous, time 30 min.
[15] abbreviates: Table II, intravenous, time 120 min.
The mark [16] stands for this setting: Table I, activity in wells, twofold serial dilution assay.

Structures can show the parent of a compound that is named as a salt. Where two headings read alike, the source gives them in different places.

For `Cc1ccc(C(=O)Nc2ccc(S(=O)(=O)O)c3cc(S(=O)(=O)O)cc(S(=O)(=O)O)c23)cc1NC(=O)c1cccc(NC(=O)Nc2cccc(C(=O)Nc3cc(C(=O)Nc4ccc(S(=O)(=O)O)c5cc(S(=O)(=O)O)cc(S(=O)(=O)O)c45)ccc3C)c2)c1` [Suramin], the “anticomplementary effect / complement inhibition” value in test [1] is “competitive inhibitor of the complement system”.
For the compound `Nc1ccc2cc(S(=O)(=O)O)cc(O)c2c1N=Nc1ccc(NC(=O)Nc2ccc(N=Nc3c(N)ccc4cc(S(=O)(=O)O)cc(O)c34)c(S(=O)(=O)O)c2)cc1S(=O)(=O)O` [chlorazol fast pink, 3,3'-ureylenebis-[6-(2-amino-8-hydroxy-6-sulfo-1-naphthylazo)]benzenesulfonic acid, tetrasodium salt], the “anticomplementary effect / complement inhibition” value in test [1] is listed as “anticomplementary effect”.
Regarding `NC[C@H]1CC[C@H](C(=O)O)CC1` [tranexamic acid], the “success in the treatment of hereditary angioneurotic edema” value in test [2] was “used with success in the treatment of hereditary angioneurotic edema”.
Regarding `Nc1ccc(C(=O)Nc2cc(C(=O)Nc3cc(S(=O)(=O)O)cc4cc(S(=O)(=O)O)cc(S(=O)(=O)O)c34)cc(C(=O)Nc3cc(S(=O)(=O)O)cc4cc(S(=O)(=O)O)cc(S(=O)(=O)O)c34)c2)c(S(=O)(=O)O)c1` [8,8'-[5-(4-Amino-2-sulfobenzamido)-1,3-phenylenedicarbonylimino]di-1,3,6-naphthalenetrisulfonic acid heptasodium salt], the “Shunt Inhibition 036 Wells” value in test [3] (setting [9]) is reported as “+2 Wells”. The “C-Late 035 Wells” value in test [4] (setting [9]) was “+3 Wells”. For the same compound, the “In Vivo Activity (Guinea Pig) % Inhibition” value in test [5] (setting [10]) was -45%; in test [5] (setting [11]) it was -61%; in test [5] (setting [12]), -73%; in test [5] (setting [13]), -98%; in test [5] (setting [14]), -79%; in test [5] (setting [15]), -45%. The “Cl 026 Wells” value in test [6] (setting [9]) is recorded as “+6 Wells”.
Consider heparin, for which the “anticomplementary effect / complement inhibition” value in test [1] is “anticomplementary effect”.
For the compound `O=C(Nc1ccc(C(=O)Nc2cc(C(=O)Nc3cc(S(=O)(=O)O)cc4cc(S(=O)(=O)O)cc(S(=O)(=O)O)c34)cc(C(=O)Nc3cc(S(=O)(=O)O)cc4cc(S(=O)(=O)O)cc(S(=O)(=O)O)c34)c2)c(S(=O)(=O)O)c1)Nc1ccc(C(=O)Nc2cc(C(=O)Nc3cc(S(=O)(=O)O)cc4cc(S(=O)(=O)O)cc(S(=O)(=O)O)c34)cc(C(=O)Nc3cc(S(=O)(=O)O)cc4cc(S(=O)(=O)O)cc(S(=O)(=O)O)c34)c2)c(S(=O)(=O)O)c1` [8,8',8",8'"Ureylenebis[(2-sulfo-4,1-phenylene)carbonylimino-s-phenenylbis(carbonylimino)]tetra-1,3,6-naphthalenetrisulfonic acid tetradecyl sodium salt], the “Shunt Inhibition 036 Wells” value in test [3] (setting [16]) is on record as “+5 Wells”. Besides, in test [4] (setting [16]), the “C-Late 035 Wells” value was “+5 Wells”. Also, the “In Vivo Activity (Guinea Pig) % Inhibition” value is reported as -97% in test [5] (Table I, intravenous, 200 mg/kg, time 2 minutes); -96% in test [5] (Table I, intravenous, 200 mg/kg, time 30 minutes); -95% in test [5] (Table I, intravenous, 200 mg/kg, time printed 20 minutes). Moreover, the “Cl 026 Wells” value in test [6] (setting [16]) was “+8 Wells”.
For `NCCCCCC(=O)O` [epsilon-aminocaproic acid], the “success in the treatment of hereditary angioneurotic edema” value in test [2] is “used with success in the treatment of hereditary angioneurotic edema”.
Take pentosanpoly-sulfoester: the “anticomplementary activity (reduction in total hemolytic complement activity)” value in test [7] was “anticomplementary activity on human serum both in vitro and in vivo”; in test [8], “anticomplementary activity on human serum both in vitro and in vivo”.
As for `O=C(Nc1cc(S(=O)(=O)O)cc2cc(S(=O)(=O)O)cc(S(=O)(=O)O)c12)c1cc(NC(=O)c2ccc([N+](=O)[O-])cc2S(=O)(=O)O)cc(C(=O)Nc2cc(S(=O)(=O)O)cc3cc(S(=O)(=O)O)cc(S(=O)(=O)O)c23)c1` [8,8'-[5-(4-Nitro-2-sulfobenzamido)-1,3-phenylenedicarbonylimino]di-1,3,6-naphthalenetrisulfonic acid heptasodium salt], the “Shunt Inhibition 036 Wells” value in test [3] (setting [9]) is “+1 Wells”. For the same compound, the “C-Late 035 Wells” value in test [4] (setting [9]) was “+2 Wells”. Also, the “In Vivo Activity (Guinea Pig) % Inhibition” value in test [5] (setting [10]) is given as -40%; in test [5] (setting [11]), -55%; in test [5] (setting [12]), -74%; in test [5] (setting [13]), -91%; in test [5] (setting [14]), -59%; in test [5] (setting [15]), -51%. Further, the “Cl 026 Wells” value in test [6] (setting [9]) is “+4 Wells”.

The values above are taken from patent publication US4229371A, “Ureylene naphthalene sulfonic acid intermediates” (American Cyanamid Company, priority 1978, dated 1980).
